Laboratory results published in article PMC9823097, “Dysregulation of PRMT5 in chronic lymphocytic leukemia promotes progression with high risk of Richter’s transformation” (Nature Communications, 2023).
Where “and” joins values, the source holds several entries; their conditions need not be identical. Equal values may be shown once.

Experiments:
[1] = system: Eµ-PRMT5/TCL1 Cd19+Cd5+ spleen cells engrafted into immunocompetent C57/BL6J mice; experiment: Adoptive transfer of Eµ-PRMT5/TCL1 spleen cells into C57/BL6J mice, treatment study; format: in vivo
Description: For adoptive transfer, viable Cd19^+Cd5^+ cells (5 × 10^6) from the spleen of an Eµ-PRMT5/TCL1 transgenic mouse with active CLL-like leukemia (>80% circulating in peripheral blood) and palpable splenomegaly were engrafted by tail vein into immunocompetent C57/BL6J female mice. Engrafted mice were randomly assigned to treatment conditions: PRT382 10 mg/kg, EPZ015666 50 mg/kg, or vehicle (0.5% methylcellulose, 0.1% tween) at 1-week post engraftment. All treatments were administered by oral gavage 4 contiguous days per week (Mon-Thurs). Predefined euthanasia criteria for mice in all transgenic colonies and murine transplant models were followed and included lethargy, impaired motility, splenomegaly, enlarged lymph nodes and/or superficial lymphoid tumors greater than 1.6 cm in diameter (or cumulative diameter of 1.6 cm if multiple tumors), decrease in body weight (>20%), ruffled fur, hunched back, failure to nest, and loss of appetite.

HG3 CLL cell line = experiment: Global symmetric dimethyl arginine (SDMA) western blot, HG3; format: cell-based; settings: HG3, 72 h treatment
From the text: Proteins extracted from whole-cell lysates were resolved by SDS-PAGE and transferred on nitrocellulose membrane as previously described. CpG685 oligonucleotide was obtained from the OSU Cytogenetics Core Lab. Antibodies used for immunoblots included anti-human PRMT5 (Abcam #ab109451), GAPDH (Millipore Sigma #MAB374), SDMA (Cell Signaling Technology #13222), c-Myc (Cell Signaling Technology #5605S), and β-Actin (Cell Signaling Technology #4967S). Cas9-mediated doxycycline-inducible knockout of PRMT5 utilized a targeted sgRNA (guide sequence: […], PAM: GGG).

Mec-1 cells = experiment: Cell growth curves over 12 days, Mec-1; format: cell-based
Description: Live cells/mL were counted on days 3, 6, 10, and 12. […] The split factor was calculated at indicated time points by dividing the counted cells/mL by 3E5. Cell growth was extrapolated over time by multiplying the subsequent cell count by the previous split factor. Cell growth is plotted as fold change relative to DMSO-treated cells.

[2] = Mec-1, continuous exposure over 12 days

CON=c1nc[nH]c2c1ccn2[C@@H]1O[C@H]([C@H](O)c2ccc(Cl)c(Cl)c2)[C@@H](O)[C@H]1O.Cl [PRT382, (2 R,3 S,4 R,5 R)-2-[(R)-(3,4-dichlorophenyl)-hydroxy-methyl]-5-[(4Z)-4-methoxyimino-1H-pyrrolo[2,3-d]pyrimidin-7-yl]tetrahydrofuran-3,4-diol hydrochloride]
Week 1 CD19+/B220dim ([1]; Figure 7F, per mouse, week 1, in % (unit assumed)): 14.94 and 11.13 and 14.86 and 15.24 and 10.03 and 10.93 and 22.62 and 11.33 and 10.17 and 14.2 | Week 2 CD19+/B220dim ([1]; Figure 7F, per mouse, week 2, in % (unit assumed)): 13.43 and 12.86 and 10.14 and 23.82 and 13.56 and 16.79 and 25.72 and 21.61 and 19.95 and 20.17 | Week 3 CD19+/B220dim ([1]; Figure 7F, per mouse, week 3, in % (unit assumed)): 26.89 and 23.33 and 20.67 and 34.07 and 24.63 and 26.03 and 34.34 and 21.21 and 26.17 and 22.42 | Week 4 CD19+/B220dim ([1]; Figure 7F, per mouse, week 4, in % (unit assumed)): 41.39 and 38.3 and 24.43 and 39.63 and 41.81 and 49.51 and 51.09 and 40.09 and 18.3 and 35.71 | Week 5 CD19+/B220dim ([1]; Figure 7F, per mouse, week 5): 59.47 and 50.76 and 31.63 and 42.2 and 57.43 and 71.78 and 71.22 and 54.4 and 38.84 and 43.16 | Week 6 CD19+/B220dim ([1]; Figure 7F, per mouse, week 6, in % (unit assumed)): 77.7 and 46.25 and 37.53 and 72.87 and 45.24 and 51.74 and 53.46 and 63.05 and 57.02 and 47.66 | Week 7 CD19+/B220dim ([1]; Figure 7F, per mouse, week 7, in % (unit assumed)): 84.05 and 64.76 and 55.81 and 74.55 and 67.6 and 65.33 and 67.88 and 74.71 and 65.7 and 77.54 | Week 8 CD19+/B220dim ([1]; Figure 7F, per mouse, week 8): 89.79 and 78.47 and 68.08 and 80.27 and 72.86 and 72.85 and 63.41 and 82.55 and 81.05 and 82.92 | Week 9 CD19+/B220dim ([1]; Figure 7F, per mouse, week 9): 91.31 and 75.18 and 73.48 and 85.11 and 81.63 and 77.6 and 71.82 and 88.55 and 87.37 and 84.51 | Week 10 CD19+/B220dim ([1]; Figure 7F, per mouse, week 10, in % (unit assumed)): 76.49 and 84.3 and 76.64 and 83.91 and 87.5 and 87.78 and 77.93 and 88.18 and 89.1 and 91.37 | Week 11 CD19+/B220dim ([1]; Figure 7F, per mouse, week 11, in % (unit assumed)): 84.23 and 77.24 and 87.2 and 87.38 and 85.21 and 81.05 and 94.62 and 92.7 and 90.88 | Week 12 CD19+/B220dim ([1]; Figure 7F, per mouse, week 12): 87.17 and 83.54 and 90.72 and 88.55 and 85.11 | Week 13 CD19+/B220dim ([1]; Figure 7F, per mouse, week 13, in % (unit assumed)): 69.75 and 81.14 and 92.04 and 85.97 and 82.89 | Endpoint ([1]; Figure 7G, survival endpoint indicator, per mouse): 1 | Days since enrollment ([1]; Figure 7G, survival, per mouse): 64 days and 85 days and 92 days and 71 days and 84 days | Spleen weight ([1]; Figure 7H, per mouse): 0.86 g and 1.01 g and 0.37 g and 0.52 g and 0.24 g and 0.7 g and 0.84 g | survival compared to EPZ015666 or vehicle ([1]; PRT382 10 mg/kg): significant extension in survival | hazard ratio, PRT382 vs EPZ015666 (Mantel–Cox) ([1]; PRT382 10 mg/kg vs EPZ015666 50 mg/kg, survival): 0.65 | PRMT5 target modulation, immunoblot of splenic B cells ([1]; PRT382 10 mg/kg, EPZ015666 50 mg/kg): confirmed PRMT5 target modulation | Median survival post-enrollment ([1]; PRT382 10 mg/kg, EPZ015666 50 mg/kg, oral gavage 4 contiguous days per week): 77 days | hazard ratio, PRT382 vs vehicle (Mantel–Cox) ([1]; PRT382 10 mg/kg, survival): 0.21 | spleen weight and volume compared to EPZ015666 or vehicle ([1]; at ERC): significantly reduced weight and volume | leukemic expansion across non-lymphoid tissues (histopathology, liver) ([1]; compared with vehicle or EPZ015666-treated mice): decrease in leukemic expansion | Spleen volume ([1]; individual mice, Supplemental Figure 6F): 645.24 mm3 and 1183.96 mm3 and 457.289 mm3 and 271.152 mm3 and 253.789 mm3 and 859.967 mm3 and 562.493 mm3 | rate of peripheral disease (CLL-like cells in peripheral blood) ([1]; weeks 2-7 post engraftment, compared to EPZ015666 or vehicle): reduced the rate of peripheral disease | lowest dose with decrease in global SDMA residues (HG3 CLL cell line): 100 nM | anti-proliferative potency compared to JNJ-64619178, LLY-283, and PF-06855800 (Mec-1 cells; Mec-1): similar-to-reduced | Rep 1 Live Cells [Fold Change] (Mec-1 cells; Mec-1, 1 nM, day 0): 1 Fold Change | Rep 2 Live Cells [Fold Change] (Mec-1 cells; Mec-1, 1 nM, day 0): 1 Fold Change | Rep 3 Live Cells [Fold Change] (Mec-1 cells; Mec-1, 1 nM, day 0): 1 Fold Change | Rep 1 Live Cells [Fold Change] (Mec-1 cells; Mec-1, 1 nM, day 3): 5.48 Fold Change | Rep 2 Live Cells [Fold Change] (Mec-1 cells; Mec-1, 1 nM, day 3): 7.38 Fold Change | Rep 3 Live Cells [Fold Change] (Mec-1 cells; Mec-1, 1 nM, day 3): 6.82 Fold Change | Rep 1 Live Cells [Fold Change] (Mec-1 cells; Mec-1, 1 nM, day 6): 47.7 Fold Change | Rep 2 Live Cells [Fold Change] (Mec-1 cells; Mec-1, 1 nM, day 6): 61 Fold Change | Rep 3 Live Cells [Fold Change] (Mec-1 cells; Mec-1, 1 nM, day 6): 62.4 Fold Change | Rep 1 Live Cells [Fold Change] (Mec-1 cells; Mec-1, 1 nM, day 10): 655 Fold Change | Rep 2 Live Cells [Fold Change] (Mec-1 cells; Mec-1, 1 nM, day 10): 809 Fold Change | Rep 3 Live Cells [Fold Change] (Mec-1 cells; Mec-1, 1 nM, day 10): 898 Fold Change | Rep 1 Live Cells [Fold Change] (Mec-1 cells; Mec-1, 1 nM, day 12): 2650 Fold Change | Rep 2 Live Cells [Fold Change] (Mec-1 cells; Mec-1, 1 nM, day 12): 2940 Fold Change | Rep 3 Live Cells [Fold Change] (Mec-1 cells; Mec-1, 1 nM, day 12): 4480 Fold Change | Rep 1 Live Cells [Fold Change] (Mec-1 cells; Mec-1, 10 nM, day 0): 1 Fold Change | Rep 2 Live Cells [Fold Change] (Mec-1 cells; Mec-1, 10 nM, day 0): 1 Fold Change | Rep 3 Live Cells [Fold Change] (Mec-1 cells; Mec-1, 10 nM, day 0): 1 Fold Change | Rep 1 Live Cells [Fold Change] (Mec-1 cells; Mec-1, 10 nM, day 3): 8.13 Fold Change | Rep 2 Live Cells [Fold Change] (Mec-1 cells; Mec-1, 10 nM, day 3): 8.43 Fold Change | Rep 3 Live Cells [Fold Change] (Mec-1 cells; Mec-1, 10 nM, day 3): 7.78 Fold Change | Rep 1 Live Cells [Fold Change] (Mec-1 cells; Mec-1, 10 nM, day 6): 70.5 Fold Change | Rep 2 Live Cells [Fold Change] (Mec-1 cells; Mec-1, 10 nM, day 6): 65.2 Fold Change | Rep 3 Live Cells [Fold Change] (Mec-1 cells; Mec-1, 10 nM, day 6): 77.4 Fold Change | Rep 1 Live Cells [Fold Change] (Mec-1 cells; Mec-1, 10 nM, day 10): 909 Fold Change | Rep 2 Live Cells [Fold Change] (Mec-1 cells; Mec-1, 10 nM, day 10): 1080 Fold Change | Rep 3 Live Cells [Fold Change] (Mec-1 cells; Mec-1, 10 nM, day 10): 887 Fold Change | Rep 1 Live Cells [Fold Change] (Mec-1 cells; Mec-1, 10 nM, day 12): 3770 Fold Change | Rep 2 Live Cells [Fold Change] (Mec-1 cells; Mec-1, 10 nM, day 12): 3720 Fold Change | Rep 3 Live Cells [Fold Change] (Mec-1 cells; Mec-1, 10 nM, day 12): 6410 Fold Change | Rep 1 Live Cells [Fold Change] (Mec-1 cells; Mec-1, 100 nM, day 0): 1 Fold Change | Rep 2 Live Cells [Fold Change] (Mec-1 cells; Mec-1, 100 nM, day 0): 1 Fold Change | Rep 3 Live Cells [Fold Change] (Mec-1 cells; Mec-1, 100 nM, day 0): 1 Fold Change | Rep 1 Live Cells [Fold Change] (Mec-1 cells; Mec-1, 100 nM, day 3): 6.3 Fold Change | Rep 2 Live Cells [Fold Change] (Mec-1 cells; Mec-1, 100 nM, day 3): 5.17 Fold Change | Rep 3 Live Cells [Fold Change] (Mec-1 cells; Mec-1, 100 nM, day 3): 4.6 Fold Change | Rep 1 Live Cells [Fold Change] (Mec-1 cells; Mec-1, 100 nM, day 6): 14 Fold Change | Rep 2 Live Cells [Fold Change] (Mec-1 cells; Mec-1, 100 nM, day 6): 17.1 Fold Change | Rep 3 Live Cells [Fold Change] (Mec-1 cells; Mec-1, 100 nM, day 6): 13.3 Fold Change | Rep 1 Live Cells [Fold Change] (Mec-1 cells; Mec-1, 100 nM, day 10): 63 Fold Change | Rep 2 Live Cells [Fold Change] (Mec-1 cells; Mec-1, 100 nM, day 10): 155 Fold Change | Rep 3 Live Cells [Fold Change] (Mec-1 cells; Mec-1, 100 nM, day 10): 73.7 Fold Change | Rep 1 Live Cells [Fold Change] (Mec-1 cells; Mec-1, 100 nM, day 12): 100 Fold Change | Rep 2 Live Cells [Fold Change] (Mec-1 cells; Mec-1, 100 nM, day 12): 297 Fold Change | Rep 3 Live Cells [Fold Change] (Mec-1 cells; Mec-1, 100 nM, day 12): 92.2 Fold Change | Rep 1 Live Cells [Fold Change] (Mec-1 cells; Mec-1, 1 µM, day 0): 1 Fold Change | Rep 2 Live Cells [Fold Change] (Mec-1 cells; Mec-1, 1 µM, day 0): 1 Fold Change | Rep 3 Live Cells [Fold Change] (Mec-1 cells; Mec-1, 1 µM, day 0): 1 Fold Change | Rep 1 Live Cells [Fold Change] (Mec-1 cells; Mec-1, 1 µM, day 3): 3.87 Fold Change | Rep 2 Live Cells [Fold Change] (Mec-1 cells; Mec-1, 1 µM, day 3): 4.23 Fold Change | Rep 3 Live Cells [Fold Change] (Mec-1 cells; Mec-1, 1 µM, day 3): 5.4 Fold Change | Rep 1 Live Cells [Fold Change] (Mec-1 cells; Mec-1, 1 µM, day 6): 7.67 Fold Change | Rep 2 Live Cells [Fold Change] (Mec-1 cells; Mec-1, 1 µM, day 6): 5.09 Fold Change | Rep 3 Live Cells [Fold Change] (Mec-1 cells; Mec-1, 1 µM, day 6): 4.33 Fold Change | Rep 1 Live Cells [Fold Change] (Mec-1 cells; Mec-1, 1 µM, day 10): 8.99 Fold Change | Rep 2 Live Cells [Fold Change] (Mec-1 cells; Mec-1, 1 µM, day 10): 4.86 Fold Change | Rep 3 Live Cells [Fold Change] (Mec-1 cells; Mec-1, 1 µM, day 10): 2.73 Fold Change | Rep 1 Live Cells [Fold Change] (Mec-1 cells; Mec-1, 1 µM, day 12): 3.31 Fold Change | Rep 2 Live Cells [Fold Change] (Mec-1 cells; Mec-1, 1 µM, day 12): 4.55 Fold Change | Rep 3 Live Cells [Fold Change] (Mec-1 cells; Mec-1, 1 µM, day 12): 1.12 Fold Change | dose at which growth inhibition begins (Mec-1 cells; [2]): 100 nM | effect on growth potential (cell growth) (Mec-1 cells; [2]): time and dose-dependent growth inhibition
